From patent US20220125765A1, “PHARMACEUTICAL COMBINATIONS COMPRISING MEBENDAZOLE AND A STRONG OR MODERATE CYP1A2 INHIBITOR” (ZEPHAPHARM LTD, priority 2019, published 2022)
Read-outs that look alike come from different tables or passages of the source.

Columns and labels:
Assay type in all cases: cell-based
NBXF SK-N-MC = test: 2D monolayer CellTiter-Blue viability, neuroblastoma SK-N-MC; conditions: 72 h
Method: (§1) Seventeen compounds, including mebendazole (Batch no. […] Efficacy of compounds was assessed using CellTiter-Blue® Cell Viability Assay. Anti-tumor activity is expressed as absolute and relative IC50 and IC70 values, calculated by non-linear regression analysis.

NBXF CHP-212 = test: 2D monolayer CellTiter-Blue viability, neuroblastoma CHP-212; conditions: 72 h
Method: as §1

SXFS 1301 = test: 2D monolayer CellTiter-Blue viability, soft tissue sarcoma SXFS 1301; conditions: 72 h
Method: as §1

OVXF 899L = test: 2D monolayer CellTiter-Blue viability, ovarian cancer OVXF 899L (P-gp expressing, multidrug resistant); conditions: for Test/Control (%) at Drug Concentration: 72 h; for IC50: OVXF 899L
Method: Mebendazole was tested in vitro across a panel of 12 tumor cell lines of ovarian and renal cancer by using a 2D monolayer assay. […] OVXF 899L and RXF 486L are P-gp expressing, multidrug resistant cell lines.
Anti-tumor activity is expressed as absolute and relative IC50/70 values, calculated by 4-parameter non-linear curve fit.

COC(=O)Nc1nc2ccc(C(=O)c3ccccc3)cc2[nH]1 [Mebendazole, methyl N-(6-benzoyl-1H-benzimidazol-2-yl)carbamate]
Test/Control (%) at Drug Concentration (NBXF SK-N-MC; 1.0E+00 μM): 33%
Test/Control (%) at Drug Concentration (NBXF SK-N-MC; 1.0E+01 μM): 1%
Test/Control (%) at Drug Concentration (NBXF SK-N-MC; 1.0E+02 μM): 0%
Test/Control (%) at Drug Concentration (NBXF SK-N-MC; 1.0E−01 μM): 90%
Test/Control (%) at Drug Concentration (NBXF SK-N-MC; 1.0E−02 μM): 88%
Test/Control (%) at Drug Concentration (NBXF SK-N-MC; 3.2E+00 μM): 6%
Test/Control (%) at Drug Concentration (NBXF SK-N-MC; 3.2E+01 μM): 1%
Test/Control (%) at Drug Concentration (NBXF SK-N-MC; 3.2E−01 μM): 38%
Test/Control (%) at Drug Concentration (NBXF SK-N-MC; 3.2E−02 μM): 100%
Test/Control (%) at Drug Concentration (NBXF SK-N-MC; 3.2E−03 μM): 101%
Test/Control (%) at Drug Concentration (NBXF CHP-212; CHP-212, 1.0E+00 μM): 14%
Test/Control (%) at Drug Concentration (NBXF CHP-212; CHP-212, 1.0E+01 μM): 23%
Test/Control (%) at Drug Concentration (NBXF CHP-212; CHP-212, 1.0E+02 μM): 19%
Test/Control (%) at Drug Concentration (NBXF CHP-212; CHP-212, 1.0E−01 μM): 59%
Test/Control (%) at Drug Concentration (NBXF CHP-212; CHP-212, 1.0E−02 μM): 98%
Test/Control (%) at Drug Concentration (NBXF CHP-212; CHP-212, 3.2E+00 μM): 20%
Test/Control (%) at Drug Concentration (NBXF CHP-212; CHP-212, 3.2E+01 μM): 27%
Test/Control (%) at Drug Concentration (NBXF CHP-212; CHP-212, 3.2E−01 μM): 19%
Test/Control (%) at Drug Concentration (NBXF CHP-212; CHP-212, 3.2E−02 μM): 88%
Test/Control (%) at Drug Concentration (NBXF CHP-212; CHP-212, 3.2E−03 μM): 95%
Test/Control (%) at Drug Concentration (SXFS 1301; SXFS 1301, 1.0E+00 μM): 35%
Test/Control (%) at Drug Concentration (SXFS 1301; SXFS 1301, 1.0E+01 μM): 38%
Test/Control (%) at Drug Concentration (SXFS 1301; SXFS 1301, 1.0E+02 μM): 8%
Test/Control (%) at Drug Concentration (SXFS 1301; SXFS 1301, 1.0E−01 μM): 84%
Test/Control (%) at Drug Concentration (SXFS 1301; SXFS 1301, 1.0E−02 μM): 106%
Test/Control (%) at Drug Concentration (SXFS 1301; SXFS 1301, 3.2E+00 μM): 33%
Test/Control (%) at Drug Concentration (SXFS 1301; SXFS 1301, 3.2E+01 μM): 36%
Test/Control (%) at Drug Concentration (SXFS 1301; SXFS 1301, 3.2E−01 μM): 55%
Test/Control (%) at Drug Concentration (SXFS 1301; SXFS 1301, 3.2E−02 μM): 98%
Test/Control (%) at Drug Concentration (SXFS 1301; SXFS 1301, 3.2E−03 μM): 101%
Test/Control (%) at Drug Concentration (OVXF 899L; OVXF 899, 1.0E+00 μM): 54%
Test/Control (%) at Drug Concentration (OVXF 899L; OVXF 899, 1.0E−01 μM): 92%
Test/Control (%) at Drug Concentration (OVXF 899L; OVXF 899, 1.0E−02 μM): 97%
Test/Control (%) at Drug Concentration (OVXF 899L; OVXF 899, 1.0E−03 μM): 100%
Test/Control (%) at Drug Concentration (OVXF 899L; OVXF 899, 1.0E−04 μM): 88%
Test/Control (%) at Drug Concentration (OVXF 899L; OVXF 899, 3.2E+00 μM): 65%
Test/Control (%) at Drug Concentration (OVXF 899L; OVXF 899, 3.2E−01 μM): 94%
Test/Control (%) at Drug Concentration (OVXF 899L; OVXF 899, 3.2E−02 μM): 94%
Test/Control (%) at Drug Concentration (OVXF 899L; OVXF 899, 3.2E−03 μM): 97%
Test/Control (%) at Drug Concentration (OVXF 899L; OVXF 899, 3.2E−04 μM): 98%
Abs. IC70 (OVXF 899L; OVXF 899, 72 h): >3.200 µM
Rel. IC70 (OVXF 899L; OVXF 899, 72 h): 0.425 µM
Bot. (%) (OVXF 899L; OVXF 899, 72 h, curve fit): 57%
Top (%) (OVXF 899L; OVXF 899, 72 h, curve fit): 95%
IC50 (OVXF 899L; OVXF 899, 72 h, read-out: Abs. IC50): > 3.2 µM
IC50 (OVXF 899L; OVXF 899, 72 h, read-out: Rel. IC50): 0.401 µM
